Assay results reported in US10710988B2, “Piperazine derivative” (Astellas Pharma Inc., priority 2016, dated 2020).
Structures can show the parent of a compound that is named as a salt.

Key:
Format in all cases: cell-based
human MC3 receptor = molecular target: T1, human MC3 receptor (Homo sapiens, UniProt P41968); test: Human MC3 receptor activation, cAMP production in cells transiently expressing the receptor; settings: FreeStyle 293-F cells expressing human MC3 receptor, α-MSH maximum = 100%
T1 construct: expressed in transfected cells; host or cells: FreeStyle 293-F cells (transient, electroporation)
Source text: (§1) (1) Construction of Human MC Receptor-Expressing Vector
(§2) A human MC4 receptor gene (GenBank Accession No.: NM_005912.2), a human MC1 receptor gene (GenBank Accession No.: NM_002386.3), or a human MC3 receptor gene (GenBank Accession No.: NM_019888.3) was introduced into an expression vector pcDNA™ 3.1N/V5-His TOPO (registered trademark) (Thermo Fisher Scientific Inc).
(§3) (2) Construction of Cells Transiently Expressing Human MC Receptor
(§4) An expression vector for a human MC4, MC1, or MC3 receptor was introduced into FreeStyle™ 293-F cells (Thermo Fisher Scientific Inc., product number: R790-07). For the introduction, electroporation was employed. That is, 1×10^7 FreeStyle™ 293-F cells were suspended in 80 μL of an Electroporation Buffer (Thermo Fisher Scientific Inc., product number: B201-100), and 20 μg of the expression vector was added thereto. The resultant was put into a cuvette (OC-100 Processing Assembly, MaxCyte, Inc.) and electroporated with MaxCyte STX (registered trademark) (MaxCyte, Inc.). The cells were cultured for a day, suspended in a Cell Banker (registered trademark) 1 (TAKARA BIO INC. or JUJI FIELD Inc., product number: BLC-1), and stored frozen until they were used.
(§5) (3) Measurement of Amount of cAMP Production
(§6) Measurement was carried out by using a LANCE (registered trademark) Ultra cAMP Kit (PerkinElmer, Inc.) in accordance with the attached instructions. That is, after dissolution in DMSO, the test compound (a final concentration of 1 pM to 30 μM) diluted with an assay buffer (Hank's balanced salt solution, 5 mM 4-(2-hydroxyethyl)-1-piperazineethanesulfonic acid (HEPES), 0.5 mM 3-isobutyl-1-methylxanthine (IBMX), 0.1% bovine serum albumin, pH 7.4), or α-MSH (Bachem Inc., a final concentration of 1 pM to 30 μM) was added to OptiPlate-384 (PerkinElmer, Inc.). Furthermore, the suspension of the cells transiently expressing the human MC4, MC1, or MC3 receptor prepared using the assay buffer was added thereto at 1,000 cells/well, and then left to stand at room temperature for about 1 hour. Thereafter, an Eu-cAMP tracer solution and an ULight™-anti-cAMP solution were added thereto, and then the resulting solution was left to stand at room temperature for about 1 hour. The amount of cAMP was calculated using EnVision (registered trademark) (PerkinElmer Inc.).
(§7) For the agonistic activity, the efficacy (EC50 (μM)) was calculated by a non-linear regression method with a Sigmoid-Emax model, by defining the maximum reaction using α-MSH as 100% and the reaction using the vehicle alone as 0%, respectively.

human MC1 receptor = molecular target: T2, human MC1 receptor (Homo sapiens, UniProt Q01726); test: Human MC1 receptor activation, cAMP production in cells transiently expressing the receptor; settings: FreeStyle 293-F cells expressing human MC1 receptor, α-MSH maximum = 100%
T2 construct: expressed in transfected cells; host or cells: FreeStyle 293-F cells (transient, electroporation)
Source text: as §1, §2, §3, §4, §5, §6, §7

rat MC4 receptor = molecular target: T3, rat MC4 receptor (Rattus norvegicus, UniProt P70596); test: Rat MC4 receptor activation, cAMP production in cells transiently expressing the receptor; settings: FreeStyle 293-F cells expressing rat MC4 receptor, α-MSH maximum = 100%
T3 construct: expressed in transfected cells; host or cells: FreeStyle 293-F cells (transient, electroporation)
Source text: (1) Construction of Rat MC4 Receptor-Expressing Vector
A rat MC4 receptor gene (GenBank Accession No.: NM_013099.3) was introduced into an expression vector pcDNA™ 3.1N/V5-His TOPO (registered trademark) (Thermo Fisher Scientific Inc.).
(2) Construction of Cells Transiently Expressing Rat MC4 Receptor
as §4, with “rat MC4” for “human MC4, MC1, or MC3”, “Inc.).” for “Inc., product number: R790-07).”, “electroporation buffer” for “Electroporation Buffer”, “Inc.),” for “Inc., product number: B201-100),”, “Inc.),” for “Inc., product number: BLC-1),”
as §5
Measurement was carried out in accordance with the attached instructions, using a LANCE (registered trademark) Ultra cAMP Kit (PerkinElmer, Inc.). That is, after dissolution in DMSO, the test compound (a final concentration of 1 pM to 30 μM) diluted with an assay buffer (Hank's balanced salt solution, 5 mM HEPES, 0.5 mM IBMX, 0.1% bovine serum albumin, pH 7.4), or α-MSH (Bachem Inc., a final concentration of 1 pM to 30 μM) was added to OptiPlate-384 (PerkinElmer, Inc.). Furthermore, the suspension of the cells transiently expressing the rat MC receptor that was prepared using the assay buffer was added thereto at 1,000 cells/well, and then left to stand at room temperature for about 1 hour. Thereafter, an Eu-cAMP tracer solution and an ULight™-anti-cAMP solution were added thereto, and the resulting solution was left to stand at room temperature for about 1 hour. The amount of cAMP was calculated using EnVision (registered trademark) (PerkinElmer Inc).
For the agonistic activity, an efficacy (EC50 (μM)) was calculated by a non-linear regression method with a Sigmoid-Emax model, by defining the maximum reaction using α-MSH as 100% and the reaction using a vehicle alone as 0%, respectively.

human MC4 receptor = molecular target: T4, human MC4 receptor (Homo sapiens, UniProt P32245); test: Human MC4 receptor activation, cAMP production in cells transiently expressing the receptor; settings: FreeStyle 293-F cells expressing human MC4 receptor, α-MSH maximum = 100%
T4 construct: expressed in transfected cells; host or cells: FreeStyle 293-F cells (transient, electroporation)
Source text: as §1, §2, §3, §4, §5, §6, §7

T1 sequence (P41968 whole entry): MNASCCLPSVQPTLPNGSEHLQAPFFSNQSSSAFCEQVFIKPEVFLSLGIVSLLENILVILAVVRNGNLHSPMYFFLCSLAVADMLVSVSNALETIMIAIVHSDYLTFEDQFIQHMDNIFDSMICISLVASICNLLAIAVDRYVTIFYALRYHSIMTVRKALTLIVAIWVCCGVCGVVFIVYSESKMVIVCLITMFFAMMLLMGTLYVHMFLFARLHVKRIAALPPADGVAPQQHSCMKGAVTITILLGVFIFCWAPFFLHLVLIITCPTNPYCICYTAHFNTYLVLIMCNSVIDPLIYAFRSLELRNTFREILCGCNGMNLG
T2 sequence (Q01726 whole entry): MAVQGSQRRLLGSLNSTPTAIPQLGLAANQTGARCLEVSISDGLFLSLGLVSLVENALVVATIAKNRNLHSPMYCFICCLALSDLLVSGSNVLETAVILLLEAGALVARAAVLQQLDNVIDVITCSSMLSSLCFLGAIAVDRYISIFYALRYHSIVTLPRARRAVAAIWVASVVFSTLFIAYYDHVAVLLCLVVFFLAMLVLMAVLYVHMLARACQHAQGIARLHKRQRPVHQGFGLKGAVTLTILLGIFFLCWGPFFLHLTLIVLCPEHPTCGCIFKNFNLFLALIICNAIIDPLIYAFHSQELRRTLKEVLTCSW
T3 sequence (P70596 whole entry): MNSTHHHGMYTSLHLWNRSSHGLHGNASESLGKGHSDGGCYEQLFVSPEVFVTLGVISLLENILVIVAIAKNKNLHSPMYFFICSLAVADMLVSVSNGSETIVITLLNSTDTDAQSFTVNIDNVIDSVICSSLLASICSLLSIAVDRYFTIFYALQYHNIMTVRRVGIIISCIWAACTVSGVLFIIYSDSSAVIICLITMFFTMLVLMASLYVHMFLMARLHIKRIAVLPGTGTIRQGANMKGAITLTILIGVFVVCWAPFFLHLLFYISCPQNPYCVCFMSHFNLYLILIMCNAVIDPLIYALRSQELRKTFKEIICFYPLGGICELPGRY
T4 sequence (P32245 whole entry): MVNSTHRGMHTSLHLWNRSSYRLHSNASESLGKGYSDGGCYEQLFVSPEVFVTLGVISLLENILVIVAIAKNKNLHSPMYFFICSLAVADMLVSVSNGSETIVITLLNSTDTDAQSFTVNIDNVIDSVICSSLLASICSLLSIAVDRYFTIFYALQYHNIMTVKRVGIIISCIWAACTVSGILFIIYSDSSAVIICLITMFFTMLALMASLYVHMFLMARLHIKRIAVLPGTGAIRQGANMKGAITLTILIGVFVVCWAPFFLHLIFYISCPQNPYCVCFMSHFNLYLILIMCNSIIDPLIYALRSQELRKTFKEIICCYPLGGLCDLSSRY

Row | Structure (SMILES) | EC50 (human MC3 receptor) | EC50 (human MC1 receptor) | EC50 (rat MC4 receptor) | EC50 (human MC4 receptor)
1 | CC(=O)N[C@@H](Cc1ccc(Cl)cc1)C(=O)N1CCN(C(=O)[C@@H]2CN(C(C)(C)C)C[C@H]2c2ccc(F)cc2F)[C@@H](C)C1 [Example 7] | 4400 nM | 680 nM | 15 nM | 77 nM
2 | C[C@H]1CN(C(=O)[C@@H](NC(=O)C2CC2)C2CCCCC2)CCN1C(=O)[C@@H]1CN(C(C)(C)C)C[C@H]1c1ccc(F)cc1F [Example 9] |  |  |  | 89 nM
3 | CC(=O)N(C)[C@H](C(=O)N1CCN(C(=O)[C@@H]2CN(C(C)(C)C)C[C@H]2c2ccc(F)cc2F)[C@@H](C)C1)C1CCCCC1 [Example 10] |  |  |  | 12 nM
4 | COC[C@H]1CN(C(=O)[C@H](CC(C)C)NC(C)=O)CCN1C(=O)C1CN(C(C)(C)C)CC1c1ccc(Br)cc1F (stereo partly shown) [Example 12] |  |  |  | 14 nM
5 | CCC(=O)N[C@@H](CC(C)(C)C)C(=O)N1CCN(C(=O)[C@@H]2CN(C3CCOCC3)C[C@H]2c2ccc(Cl)cc2F)CC12CC2 [Example 13] |  |  |  | 34 nM
6 | CC(=O)N[C@H](C(=O)N1CCN(C(=O)[C@@H]2CN(C(C)(C)C)C[C@H]2c2ccc(F)cc2F)[C@@H](C)C1)C1CCCC1 [Example 15] |  |  |  | 220 nM
7 | CC(=O)N[C@@H](Cc1cccc(F)c1)C(=O)N1CCN(C(=O)[C@@H]2CN(C(C)(C)C)C[C@H]2c2ccc(F)cc2F)[C@@H](C)C1 [Example 17] |  |  |  | 40 nM
8 | CC(=O)N[C@@H](CC1CCC(C)(C)CC1)C(=O)N1CCN(C(=O)[C@@H]2CN(C(C)(C)C)C[C@H]2c2ccc(F)cc2F)[C@@H](C)C1 [Example 18, N-[(2S)-1-[(3S)-4-{[(3 S,4R)-1-tert-butyl-4-(2,4-difluorophenyl)pyrrolidin-3-yl]carbonyl}-3-methylpiperazin-1-yl]-3-(4,4-dimethylcyclohexyl)-1-oxopropan-2-yl]acetamide monohydrochloride] |  |  |  | 62 nM
9 | CC(=O)N[C@@H](CC1CCC(F)(F)CC1)C(=O)N1CCN(C(=O)[C@@H]2CN(C(C)(C)C)C[C@H]2c2ccc(F)cc2F)[C@@H](C)C1 [Example 19] |  |  |  | 380 nM
10 | CCC(=O)N[C@@H](CC(C)(C)C)C(=O)N1CCN(C(=O)[C@@H]2CN(C3CCOCC3)C[C@H]2c2ccc(Cl)cc2F)[C@@H](C)C1 [Example 21] |  |  |  | 130 nM
11 | CC(=O)N[C@@H](Cc1ccccc1Cl)C(=O)N1CCN(C(=O)C2CN(C(C)(C)C)CC2c2cc(F)c(Cl)c(F)c2)[C@@H](C)C1 (stereo partly shown) [Example 22] |  |  |  | 180 nM
12 | CC(=O)N[C@@H](CC(C)(C)C)C(=O)N1CCN(C(=O)C2CN(C(C)(C)C)CC2c2ccc(Cl)cn2)[C@@H](C)C1 (stereo partly shown) [Example 23] | 450 nM | 870 nM | 4.8 nM | 23 nM
13 | CC(=O)N[C@@H](CC(C)(C)C)C(=O)N1CCN(C(=O)[C@@H]2CN(C(C)C)C[C@H]2c2ccc(F)cc2F)[C@@H](C)C1 [Example 24, N-{(2S)-1-[(3S)-4-{[(3S,4R)-4-(2,4-difluorophenyl)-1-isopropylpyrrolidin-3-yl]carbonyl}-3-methylpiperazin-1-yl]-4,4-dimethyl-1-oxopentan-2-yl}acetamide monohydrochloride] | 6400 nM | 1500 nM | 46 nM | 78 nM
14 | CC(=O)N[C@@H](CC(C)(C)C)C(=O)N1CCN(C(=O)[C@@H]2CN(C3CCCCC3)C[C@H]2c2ccc(F)cc2F)[C@@H](C)C1 [Example 25] |  |  |  | 120 nM
15 | CC(=O)N[C@@H](CC(C)(C)C)C(=O)N1CCN(C(=O)[C@@H]2CN(C)C[C@H]2c2ccc(F)cc2F)[C@@H](C)C1 [Example 26] |  |  |  | 5000 nM
16 | CC(=O)N[C@@H](CC(C)(C)C)C(=O)N1CCN(C(=O)[C@@H]2CN(CC3CC3)C[C@H]2c2ccc(F)cc2F)[C@@H](C)C1 [Example 27] |  |  |  | 1000 nM
17 | C[C@H]1CN(C(=O)[C@H](Cc2ccccc2Cl)N(C)C)CCN1C(=O)[C@@H]1CN(C(C)(C)C)C[C@H]1c1ccc(F)cc1F [Example 28, (2S)-1-[(3S)-4-{[(3 S,4R)-1-tert-butyl-4-(2,4-difluorophenyl)pyrrolidin-3-yl]carbonyl}-3-methylpiperazin-1-yl]-3-(2-chlorophenyl)-2-(dimethylamino)propan-1-one dihydrochloride] |  |  |  | 5.5 nM
18 | CC(C)C[C@H](NS(C)(=O)=O)C(=O)N1CCN(C(=O)[C@@H]2CN(C3CCOCC3)C[C@H]2c2ccc(Cl)cc2F)[C@@H](C)C1 [Example 29, N-{(2S)-1-[(3S)-4-{[(3S,4R)-4-(4-chloro-2-fluorophenyl)-1-(tetrahydro-2H-pyran-4-yl)pyrrolidin-3-yl]carbonyl}-3-methylpiperazin-1-yl]-4-methyl-1-oxopentan-2-yl}methanesulfonamide monohydrochloride] |  |  |  | 280 nM
19 | C[C@H]1CN(C(=O)[C@@H](N)C2CCCCC2)CCN1C(=O)[C@@H]1CN(C(C)(C)C)C[C@H]1c1ccc(F)cc1F [Example 30, (2S)-2-amino-1-[(3S)-4-{[(3S,4R)-1-tert-butyl-4-(2,4-difluorophenyl)pyrrolidin-3-yl]carbonyl}-3-methylpiperazin-1-yl]-2-cyclohexylethanone dihydrochloride] |  |  |  | 1800 nM
